Legend:
Format in all cases: biochemical
[1] = target: recombinant human PI3Kβ (6-His(p110-p85α)) (Homo sapiens (Human), UniProt P42338); assay: Enzymatic activity assay for recombinant human PI3Kβ (ADP-Glo); conditions: 1.2 nM PI3Kβ, 20 μM ATP, 80 μM DiC8-PIP2, ADP-Glo
Description: (§1) Enzymatic Activity Assay for Recombinant Human PI3K α, β, δ and γ.
(§2) The activity of recombinant human PI3Kγ ((aa144-1102)-6His) and PI3Kα, β, δ (6-His(p110-p85α)) was determined by measuring the ADP level after phosphorylation of DiC8-PIP2 using a commercially available ADP-Glo™ kit from Promega. The assay was carried out in white low volume 384 well plates in a final volume of 14 μl at R.T. The assay conditions contained the following: 50 mM Tris buffer pH 7.4, 2.1 mM DTT, 3 mM MgCl2, 0.05% CHAPS, 20 μM ATP, 80 μM DiC8-PIP2 and 1.2 nM PI3Kα, β, γ or 0.6 nM PI3Kδ. Potential inhibitors were made up in DMSO and then diluted in the assay to give a final concentration of not exceeding 1% (v/v) DMSO. […] Routinely, inhibitors were pre-incubated with 3 μl of enzyme for 15 min prior to the addition of 2 μl substrate mixture for a further 60 min enzyme reaction. The phosphorylation was stopped with the addition of 3 μl ADP-Glo™ reagent (stop solution) followed by a 40 min incubation. Prior to detection 6 μl of ADP-Glo™ Kinase Detection Reagent was added and the plates were read in a micro plate reader using a Luminescence filter. All additions were followed by a short centrifugation step.

[2] = target: recombinant human PI3Kγ ((aa144-1102)-6His) (Homo sapiens (Human), UniProt P48736); assay: Enzymatic activity assay for recombinant human PI3Kγ (ADP-Glo); conditions: 1.2 nM PI3Kγ, 20 μM ATP, 80 μM DiC8-PIP2, ADP-Glo
Description: as §1
as §2, with “PI3Kδ.” for “PI3Kδ. Potential inhibitors were made up in DMSO and then diluted in the assay to give a final concentration of not exceeding 1% (v/v) DMSO.”

[3] = target: recombinant human PI3Kδ (6-His(p110-p85α)) (Homo sapiens (Human), UniProt O00329); assay: Enzymatic activity assay for recombinant human PI3Kδ (ADP-Glo); conditions: 0.6 nM PI3Kδ, 20 μM ATP, 80 μM DiC8-PIP2, ADP-Glo
Description: as §1
as §2, with “PI3Kδ.” for “PI3Kδ. Potential inhibitors were made up in DMSO and then diluted in the assay to give a final concentration of not exceeding 1% (v/v) DMSO.”

[4] = target: recombinant human PI3Kα (6-His(p110-p85α)) (Homo sapiens (Human), UniProt P42336); assay: Enzymatic activity assay for recombinant human PI3Kα (ADP-Glo); conditions: 1.2 nM PI3Kα, 20 μM ATP, 80 μM DiC8-PIP2, ADP-Glo
Description: as §1, §2

Sequence of recombinant human PI3Kγ ((aa144-1102)-6His) (P48736 144-1102): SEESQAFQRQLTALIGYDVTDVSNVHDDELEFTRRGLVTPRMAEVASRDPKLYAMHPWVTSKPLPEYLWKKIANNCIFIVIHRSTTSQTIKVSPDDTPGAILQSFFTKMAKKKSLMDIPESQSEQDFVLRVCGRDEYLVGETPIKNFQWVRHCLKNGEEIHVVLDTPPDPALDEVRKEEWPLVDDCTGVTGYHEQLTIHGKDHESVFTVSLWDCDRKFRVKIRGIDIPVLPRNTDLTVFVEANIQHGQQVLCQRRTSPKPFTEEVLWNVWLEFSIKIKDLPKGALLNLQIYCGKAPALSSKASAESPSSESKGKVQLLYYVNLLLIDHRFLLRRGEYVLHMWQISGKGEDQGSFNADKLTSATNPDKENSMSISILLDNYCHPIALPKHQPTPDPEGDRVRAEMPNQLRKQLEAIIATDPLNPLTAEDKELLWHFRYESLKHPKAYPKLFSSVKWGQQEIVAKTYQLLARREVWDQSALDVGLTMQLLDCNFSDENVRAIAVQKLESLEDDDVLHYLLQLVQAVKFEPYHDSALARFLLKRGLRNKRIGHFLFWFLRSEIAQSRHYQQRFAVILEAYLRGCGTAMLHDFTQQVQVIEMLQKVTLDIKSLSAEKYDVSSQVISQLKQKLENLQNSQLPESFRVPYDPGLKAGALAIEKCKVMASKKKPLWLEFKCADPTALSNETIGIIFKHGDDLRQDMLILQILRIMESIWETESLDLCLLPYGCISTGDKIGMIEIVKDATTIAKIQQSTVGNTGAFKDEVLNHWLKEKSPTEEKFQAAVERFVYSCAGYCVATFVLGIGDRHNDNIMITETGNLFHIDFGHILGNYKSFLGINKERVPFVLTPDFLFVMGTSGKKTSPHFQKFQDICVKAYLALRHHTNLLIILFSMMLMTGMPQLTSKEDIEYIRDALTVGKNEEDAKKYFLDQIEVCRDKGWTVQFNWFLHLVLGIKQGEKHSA
Sequence of recombinant human PI3Kα (6-His(p110-p85α)) (P42336 whole entry): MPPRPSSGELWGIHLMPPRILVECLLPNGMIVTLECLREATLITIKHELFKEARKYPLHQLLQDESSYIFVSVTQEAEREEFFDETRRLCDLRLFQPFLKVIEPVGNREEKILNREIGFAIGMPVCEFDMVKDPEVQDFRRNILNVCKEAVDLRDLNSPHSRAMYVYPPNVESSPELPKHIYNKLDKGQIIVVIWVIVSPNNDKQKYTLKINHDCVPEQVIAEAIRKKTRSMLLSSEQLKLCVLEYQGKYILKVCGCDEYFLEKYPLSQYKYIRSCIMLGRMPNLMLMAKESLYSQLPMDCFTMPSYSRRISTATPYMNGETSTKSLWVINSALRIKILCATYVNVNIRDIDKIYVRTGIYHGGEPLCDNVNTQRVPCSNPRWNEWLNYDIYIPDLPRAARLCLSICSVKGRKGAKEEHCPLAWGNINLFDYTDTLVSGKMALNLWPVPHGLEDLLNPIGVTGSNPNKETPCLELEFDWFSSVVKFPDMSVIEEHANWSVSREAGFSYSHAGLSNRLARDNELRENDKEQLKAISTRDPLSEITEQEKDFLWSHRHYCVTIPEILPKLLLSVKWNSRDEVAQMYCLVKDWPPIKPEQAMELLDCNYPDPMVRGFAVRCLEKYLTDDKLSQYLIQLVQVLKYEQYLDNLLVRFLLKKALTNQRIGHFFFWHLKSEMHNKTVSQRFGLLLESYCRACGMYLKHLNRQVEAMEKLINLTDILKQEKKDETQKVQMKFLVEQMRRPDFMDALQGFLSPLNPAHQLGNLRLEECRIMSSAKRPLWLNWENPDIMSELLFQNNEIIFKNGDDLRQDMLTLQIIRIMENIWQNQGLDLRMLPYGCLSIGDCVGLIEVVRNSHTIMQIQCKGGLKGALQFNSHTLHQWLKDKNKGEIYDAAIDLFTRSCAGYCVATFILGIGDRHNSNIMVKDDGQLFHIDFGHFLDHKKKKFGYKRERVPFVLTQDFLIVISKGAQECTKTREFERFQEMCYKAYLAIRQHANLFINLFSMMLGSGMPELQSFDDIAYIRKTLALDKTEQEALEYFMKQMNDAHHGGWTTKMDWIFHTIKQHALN
Sequence of recombinant human PI3Kα (6-His(p110-p85α)) (P27986 whole entry partner): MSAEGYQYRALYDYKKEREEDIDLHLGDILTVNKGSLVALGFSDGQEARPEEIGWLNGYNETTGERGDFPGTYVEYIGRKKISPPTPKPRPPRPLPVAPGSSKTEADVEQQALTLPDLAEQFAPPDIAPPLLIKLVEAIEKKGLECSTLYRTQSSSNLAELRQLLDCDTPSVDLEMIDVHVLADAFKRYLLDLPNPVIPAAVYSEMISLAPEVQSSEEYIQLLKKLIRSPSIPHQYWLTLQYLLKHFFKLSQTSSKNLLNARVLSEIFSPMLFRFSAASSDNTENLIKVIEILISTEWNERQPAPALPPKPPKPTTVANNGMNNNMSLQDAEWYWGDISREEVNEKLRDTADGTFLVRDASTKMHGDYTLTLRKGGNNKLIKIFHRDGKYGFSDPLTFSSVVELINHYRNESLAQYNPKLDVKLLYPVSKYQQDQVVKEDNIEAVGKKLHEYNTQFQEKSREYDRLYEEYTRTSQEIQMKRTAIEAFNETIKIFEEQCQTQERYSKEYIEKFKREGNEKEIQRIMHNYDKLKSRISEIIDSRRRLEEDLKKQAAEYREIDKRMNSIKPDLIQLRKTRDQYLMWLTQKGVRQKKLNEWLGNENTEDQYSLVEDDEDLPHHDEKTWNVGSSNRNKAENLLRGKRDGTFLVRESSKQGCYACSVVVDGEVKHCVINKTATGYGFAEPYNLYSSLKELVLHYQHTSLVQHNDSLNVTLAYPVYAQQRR
Sequence of recombinant human PI3Kβ (6-His(p110-p85α)) (P42338 whole entry): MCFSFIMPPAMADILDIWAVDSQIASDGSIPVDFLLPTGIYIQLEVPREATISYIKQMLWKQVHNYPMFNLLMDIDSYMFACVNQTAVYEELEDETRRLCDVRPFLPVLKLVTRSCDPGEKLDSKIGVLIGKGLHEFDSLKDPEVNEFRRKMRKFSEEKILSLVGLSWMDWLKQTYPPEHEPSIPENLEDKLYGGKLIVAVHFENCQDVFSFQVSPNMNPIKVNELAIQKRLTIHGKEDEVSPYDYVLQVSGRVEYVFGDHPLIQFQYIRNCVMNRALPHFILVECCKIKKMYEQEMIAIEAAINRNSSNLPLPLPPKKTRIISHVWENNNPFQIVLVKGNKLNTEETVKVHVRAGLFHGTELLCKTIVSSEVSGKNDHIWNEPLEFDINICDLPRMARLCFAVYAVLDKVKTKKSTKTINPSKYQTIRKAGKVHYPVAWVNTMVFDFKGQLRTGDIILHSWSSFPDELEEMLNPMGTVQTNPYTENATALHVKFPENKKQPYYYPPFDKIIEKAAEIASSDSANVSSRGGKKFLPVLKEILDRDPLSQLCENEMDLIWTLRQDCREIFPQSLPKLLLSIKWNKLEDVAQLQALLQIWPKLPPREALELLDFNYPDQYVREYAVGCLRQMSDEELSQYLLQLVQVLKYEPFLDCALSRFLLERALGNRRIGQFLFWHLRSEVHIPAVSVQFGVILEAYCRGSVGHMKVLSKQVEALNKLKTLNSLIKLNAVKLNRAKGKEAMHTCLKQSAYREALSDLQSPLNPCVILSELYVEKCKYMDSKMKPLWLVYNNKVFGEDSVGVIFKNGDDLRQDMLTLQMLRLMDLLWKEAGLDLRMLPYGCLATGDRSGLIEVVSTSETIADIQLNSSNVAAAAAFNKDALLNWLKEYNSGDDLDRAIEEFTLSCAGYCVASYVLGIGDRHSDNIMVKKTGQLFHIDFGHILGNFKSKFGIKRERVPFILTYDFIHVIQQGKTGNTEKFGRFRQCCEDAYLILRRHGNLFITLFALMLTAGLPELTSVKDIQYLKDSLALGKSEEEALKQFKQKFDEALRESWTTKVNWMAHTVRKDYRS
Sequence of recombinant human PI3Kβ (6-His(p110-p85α)) (P27986 whole entry partner): as the sequence (P27986 whole entry partner) above
Sequence of recombinant human PI3Kδ (6-His(p110-p85α)) (O00329 whole entry): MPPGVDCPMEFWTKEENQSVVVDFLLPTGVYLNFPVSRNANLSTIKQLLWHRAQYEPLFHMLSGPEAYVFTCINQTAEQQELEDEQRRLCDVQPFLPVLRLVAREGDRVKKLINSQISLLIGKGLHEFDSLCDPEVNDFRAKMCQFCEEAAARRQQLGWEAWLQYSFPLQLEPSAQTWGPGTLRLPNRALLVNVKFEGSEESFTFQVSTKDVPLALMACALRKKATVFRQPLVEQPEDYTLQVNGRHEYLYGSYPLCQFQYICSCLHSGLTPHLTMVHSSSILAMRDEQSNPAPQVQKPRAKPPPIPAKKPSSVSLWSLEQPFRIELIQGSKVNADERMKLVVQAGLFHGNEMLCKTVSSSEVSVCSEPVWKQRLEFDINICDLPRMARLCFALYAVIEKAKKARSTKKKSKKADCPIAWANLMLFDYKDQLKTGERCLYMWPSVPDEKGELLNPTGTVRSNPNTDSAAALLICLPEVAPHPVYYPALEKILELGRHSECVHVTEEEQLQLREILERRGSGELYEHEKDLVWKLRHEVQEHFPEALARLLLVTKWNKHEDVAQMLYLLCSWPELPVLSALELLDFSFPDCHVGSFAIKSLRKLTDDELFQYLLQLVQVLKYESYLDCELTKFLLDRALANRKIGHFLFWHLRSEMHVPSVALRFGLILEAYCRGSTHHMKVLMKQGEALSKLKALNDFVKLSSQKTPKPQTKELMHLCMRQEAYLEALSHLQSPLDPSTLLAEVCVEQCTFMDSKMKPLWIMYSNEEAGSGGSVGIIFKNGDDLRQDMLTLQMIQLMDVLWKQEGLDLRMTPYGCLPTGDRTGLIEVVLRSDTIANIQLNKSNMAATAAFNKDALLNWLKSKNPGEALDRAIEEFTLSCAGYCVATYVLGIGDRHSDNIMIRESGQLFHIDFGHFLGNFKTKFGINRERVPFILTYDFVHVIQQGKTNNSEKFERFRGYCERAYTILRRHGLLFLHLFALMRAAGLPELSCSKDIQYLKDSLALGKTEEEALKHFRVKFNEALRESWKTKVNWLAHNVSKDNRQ
Sequence of recombinant human PI3Kδ (6-His(p110-p85α)) (P27986 whole entry partner): as the sequence (P27986 whole entry partner) above

SMILES | IC50 [1] | IC50 [2] | IC50 [3] | IC50 [4]
CNS(=O)(=O)c1cc(-c2sc(Nc3cccc(N4CC(=O)N5CCC[C@H]5C4=O)n3)nc2C)cc2c1C(=O)N([C@@H](C)C1CC1)C2 [Example 23, 2-[(1S)-1-Cyclopropylethyl]-6-[2-({6-[(8aS)-1,4-dioxohexahydropyrrolo[1,2-a]pyrazin-2(1H)-yl]pyridin-2-yl}amino)-4-methyl-1,3-thiazol-5-yl]-N-methyl-3-oxo-2,3-dihydro-1H-isoindole-4-sulfonamide] | 4880 nM | 1.3 nM | 19.4 nM | 368 nM
CNS(=O)(=O)c1cc(-c2sc(Nc3cccc(N4CCCS4(=O)=O)n3)nc2C)cc2c1C(=O)N([C@@H](C)C1CC1)C2 [Example 24, 2-[(1S)-1-Cyclopropylethyl]-6-(2-{[6-(1,1-dioxido-1,2-thiazolidin-2-yl)pyridin-2-yl]amino}-4-methyl-1,3-thiazol-5-yl)-N-methyl-3-oxo-2,3-dihydro-1H-isoindole-4-sulfonamide] | 897 nM | 0.9 nM | 0.4 nM | 42 nM
Cc1nc(Nc2cccc(N3CCOCC3=O)n2)sc1-c1cc2c(c(S(=O)(=O)NC(C)C)c1)C(=O)N([C@@H](C)C(F)(F)F)C2 [Example 28, 6-(4-Methyl-2-{[6-(3-oxomorpholin-4-yl)pyridin-2-yl]amino}-1,3-thiazol-5-yl)-3-oxo-N-(propan-2-yl)-2-[(2S)-1,1,1-trifluoropropan-2-yl]-2,3-dihydro-1H-isoindole-4-sulfonamide] | 798 nM | 2.6 nM | 1.2 nM | 318 nM
Cc1nc(Nc2cccc(N3CCNC3=O)n2)sc1-c1cc2c(c(S(=O)(=O)NC(C)C)c1)C(=O)N([C@@H](C)C(F)(F)F)C2 [Example 30, 6-(4-Methyl-2-{[6-(2-oxoimidazolidin-1-yl)pyridin-2-yl]amino}-1,3-thiazol-5-yl)-3-oxo-N-(propan-2-yl)-2-[(2S)-1,1,1-trifluoropropan-2-yl]-2,3-dihydro-1H-isoindole-4-sulfonamide] | 722 nM | 1.4 nM | 0.5 nM | 74 nM
Cc1nc(Nc2cccc(N3CCCC3=O)n2)sc1-c1cc2c(c(S(=O)(=O)NC3COC3)c1)C(=O)N([C@@H](C)C1CC1)C2 [Example 32, 2-[(1S)-1-Cyclopropylethyl]-6-(4-methyl-2-{[6-(2-oxopyrrolidin-1-yl)pyridin-2-yl]amino}-1,3-thiazol-5-yl)-N-(oxetan-3-yl)-3-oxo-2,3-dihydro-1H-isoindole-4-sulfonamide] | 2060 nM | 1.3 nM | 0.7 nM | 140 nM
Cc1nc(Nc2cccc(N3CCOC3=O)n2)sc1-c1cc2c(c(S(=O)(=O)NC3COC3)c1)C(=O)N([C@@H](C)C1CC1)C2 [Example 33, 2-[(1S)-1-Cyclopropylethyl]-6-(4-methyl-2-{[6-(2-oxo-1,3-oxazolidin-3-yl)pyridin-2-yl]amino}-1,3-thiazol-5-yl)-N-(oxetan-3-yl)-3-oxo-2,3-dihydro-1H-isoindole-4-sulfonamide] | 3420 nM | 1.2 nM | 1.4 nM | 472 nM
Cc1nc(Nc2cccc(N3CCNC3=O)n2)sc1-c1cc2c(c(S(=O)(=O)NC3COC3)c1)C(=O)N([C@@H](C)C1CC1)C2 [Example 34, 2-[(1S)-1-Cyclopropylethyl]-6-(4-methyl-2-{[6-(2-oxoimidazolidin-1-yl)pyridin-2-yl]amino}-1,3-thiazol-5-yl)-N-(oxetan-3-yl)-3-oxo-2,3-dihydro-1H-isoindole-4-sulfonamide] | 927 nM | 0.8 nM | 0.5 nM | 30 nM

Stronger by IC50 [1], values ahead:

IC50 [1] | IC50 [2] | IC50 [3] | IC50 [4] | SMILES
505 nM | 1.1 nM | 0.7 nM | 70 nM | CNS(=O)(=O)c1cc(-c2sc(Nc3cccc(N4CCCC4=O)n3)nc2C)cc2c1C(=O)N([C@@H](C)C(F)(F)F)C2 [Example 25, N-Methyl-6-(4-methyl-2-{[6-(2-oxopyrrolidin-1-yl)pyridin-2-yl]amino}-1,3-thiazol-5-yl)-3-oxo-2-[(2S)-1,1,1-trifluoropropan-2-yl]-2,3-dihydro-1H-isoindole-4-sulfonamide]
562 nM | 1.1 nM | 0.5 nM | 110 nM | CCNS(=O)(=O)c1cc(-c2sc(Nc3cccc(N(C)C(=O)COC)n3)nc2C)cc2c1C(=O)N([C@@H](C)C1CC1)C2 [Example 26, N-{6-[(5-{2-[(1S)-1-Cyclopropylethyl]-7-(ethylsulfamoyl)-1-oxo-2,3-dihydro-1H-isoindol-5-yl}-4-methyl-1,3-thiazol-2-yl)amino]pyridin-2-yl}-2-methoxy-N-methylacetamide]
178 nM | 0.9 nM | 0.7 nM | 65 nM | CCNS(=O)(=O)c1cc(-c2sc(Nc3cccc(N4CCOCC4=O)n3)nc2C)cc2c1C(=O)N([C@@H](C)C(F)(F)F)C2 [Example 27, N-Ethyl-6-(4-methyl-2-{[6-(3-oxomorpholin-4-yl)pyridin-2-yl]amino}-1,3-thiazol-5-yl)-3-oxo-2-[(2S)-1,1,1-trifluoropropan-2-yl]-2,3-dihydro-1H-isoindole-4-sulfonamide]
62 nM | 2.2 nM | 0.5 nM | 47 nM | Cc1nc(Nc2cccc(N3CCCOC3=O)n2)sc1-c1cc2c(c(S(=O)(=O)NC(C)C)c1)C(=O)N([C@@H](C)C(F)(F)F)C2 [Example 29, 6-(4-Methyl-2-{[6-(2-oxo-1,3-oxazinan-3-yl)pyridin-2-yl]amino}-1,3-thiazol-5-yl)-3-oxo-N-(propan-2-yl)-2-[(2S)-1,1,1-trifluoropropan-2-yl]-2,3-dihydro-1H-isoindole-4-sulfonamide]
484 nM | 1 nM | 0.9 nM | 53 nM | Cc1nc(Nc2cccc(N3CCCOC3=O)n2)sc1-c1cc2c(c(S(=O)(=O)NC3COC3)c1)C(=O)N([C@@H](C)C1CC1)C2 [Example 35, 2-[(1S)-1-Cyclopropylethyl]-6-(4-methyl-2-{[6-(2-oxo-1,3-oxazinan-3-yl)pyridin-2-yl]amino}-1,3-thiazol-5-yl)-N-(oxetan-3-yl)-3-oxo-2,3-dihydro-1H-isoindole-4-sulfonamide]
113 nM | 1.2 nM | 1 nM | 50 nM | Cc1nc(Nc2cccc(N3CCCCC3=O)n2)sc1-c1cc2c(c(S(=O)(=O)NC3COC3)c1)C(=O)N([C@@H](C)C(F)(F)F)C2 [Example 36, 6-(4-Methyl-2-{[6-(2-oxopiperidin-1-yl)pyridin-2-yl]amino}-1,3-thiazol-5-yl)-N-(oxetan-3-yl)-3-oxo-2-[(2S)-1,1,1-trifluoropropan-2-yl]-2,3-dihydro-1H-isoindole-4-sulfonamide]
395 nM | 1.1 nM | 0.6 nM | 67 nM | Cc1nc(Nc2cccc(N3CCCC3=O)n2)sc1-c1cc2c(c(S(=O)(=O)NC3COC3)c1)C(=O)N([C@@H](C)C(F)(F)F)C2 [Example 37, 6-(4-Methyl-2-{[6-(2-oxopyrrolidin-1-yl)pyridin-2-yl]amino}-1,3-thiazol-5-yl)-N-(oxetan-3-yl)-3-oxo-2-[(2S)-1,1,1-trifluoropropan-2-yl]-2,3-dihydro-1H-isoindole-4-sulfonamide]
65 nM | 0.8 nM | 1.8 nM | 84 nM | CNS(=O)(=O)c1cc(-c2sc(Nc3cccc(N4CCCOC4=O)n3)nc2C)cc2c1C(=O)N(C(C)(C)C)C2 [Example 38, 2-tert-Butyl-N-methyl-6-(4-methyl-2-{[6-(2-oxo-1,3-oxazinan-3-yl)pyridin-2-yl]amino}-1,3-thiazol-5-yl)-3-oxo-2,3-dihydro-1H-isoindole-4-sulfonamide]

Source: patent US10961236B2, “(S)-2-(1-cyclopropylethyl)-5-(4-methyl-2-((6-(2-oxopyrrolidin-1-yl)pyridin-2-yl)amino) thiazol-5-yl)-7-(methylsulfonyl)isoindolin-1-one as a phosphatidylinositol 3-kinase inhibitor” (AstraZeneca AB, priority 2016, dated 2021)
